According to paper PMC8762706, “Design of Coibamide A Mimetics with Improved Cellular Bioactivity” (ACS Medicinal Chemistry Letters, 2021):
Like-named read-outs stand apart in the source and are kept apart here. Where a SMILES comes first, the peptide text is derived from it. Bridges are numbered along the chain shown (N, C = ends). [ ]: non-standard residue; d: D form. The star is where a group is joined. Phe(4-N3) = [N-]=[N+]=Nc1ccc(C[C@H](N)C(=O)O)cc1; Phe(4-tBu) = CC(C)(C)c1ccc(C[C@H](N)C(=O)O)cc1; Bip = N[C@@H](Cc1ccc(-c2ccccc2)cc1)C(=O)O; Phe(4-CN) = N#Cc1ccc(C[C@H](N)C(=O)O)cc1; 2Nal = N[C@@H](Cc1ccc2ccccc2c1)C(=O)O; NMe2Val = CC(C)[C@@H](C(=O)*)N(C)C; NMeLys(Me) = CNCCCC[C@H](NC)C(=O)O; NMeI = CC[C@H](C)[C@H](NC)C(=O)O; NMeT = CN[C@H](C(=O)O)[C@@H](C)O; Tic = O=C(O)[C@@H]1Cc2ccccc2CN1; Lys(Me) = CNCCCC[C@H](N)C(=O)O; NMeL = CN[C@@H](CC(C)C)C(=O)O; NMeOrn = CN[C@@H](CCCN)C(=O)O; dNMeOrn = CN[C@H](CCCN)C(=O)O; dNMeK = CN[C@H](CCCCN)C(=O)O; dHiv = CC(C)[C@@H](O)C(=O)O; NMeA = CN[C@@H](C)C(=O)O; dNMeA = CN[C@H](C)C(=O)O; CF3 = FC(F)(F)*

Tested on: A549 cells
Assay: Growth inhibition assay (MTS) in A549 cells
Assay type: cell-based
Method: Growth Inhibition AssayS3
A549 cells were cultured in Dulbecco’s modified Eagle’s medium (DMEM; Sigma) supplemented with 10% (v/v) fetal bovine serum at 37 °C in a 5% CO2-incubator. Growth inhibition assays using A549 cells were performed in 96-well plates (BD Falcon). A549 cells were seeded at 1000 cells/well in 90 μL of culture media, respectively, and were cultured for 24 h. Chemical compounds in DMSO were diluted 50-fold with the culture medium in advance. 30 μL of the chemical diluents were added.
The final volume of DMSO in the medium was equal to 0.5% (v/v). The cells under chemical treatment were incubated for a further 72 h. The wells in the plates were washed twice with the cultured medium without phenol-red. After 1-hour incubation with 100 μL of the medium, the cell culture in each well was supplemented with 20 μL of the MTS reagent (Promega), followed by incubation for additional 40 min. Absorbance at 490 nm of each well was measured using a Wallac 1420 ARVO SX multilabel counter (Perkin Elmer). Three experiments were performed per condition and the averages of inhibition rates in each condition were evaluated to determine IC50 values using the GraphPad Prism software.

[1] = read-out: IC50 (concentration for 50% growth inhibition of A549 cells), MTS assay, 72 h treatment, 0.5% DMSO, absorbance 490 nm, n = 3

Structure (SMILES) | IC50 [1] [nM] | other results
CC[C@H](C)[C@H]1C(=O)N[C@@H](C)C(=O)N(C)[C@@H](CC(C)C)C(=O)N[C@@H](Cc2ccc(OC)cc2)C(=O)N(C)CCCC[C@H](NC(=O)[C@H](CC(C)C)N(C)C(=O)[C@H](C)N(C)C(=O)[C@H](OC(=O)[C@H](C(C)C)N(C)C)C(C)C)C(=O)N(C)[C@@H](C)C(=O)N1C [8c] (NMe2Val-[dHiv][NMeA][NMeL][Lys(Me)][NMeA][NMeI]A[NMeL]Y(Me); lactam 4-C) | 6400 ± 1700 | 
CC[C@H](C)[C@H]1C(=O)N[C@@H](C)C(=O)N(C)[C@@H](CC(C)C)C(=O)N[C@@H](Cc2ccc(OC(F)(F)F)cc2)C(=O)N(C)CCCC[C@H](N(C)C(=O)[C@H](CC(C)C)N(C)C(=O)[C@H](C)N(C)C(=O)[C@H](OC(=O)[C@H](C(C)C)N(C)C)C(C)C)C(=O)N(C)[C@@H](C)C(=O)N1C [10i] (NMe2Val-[dHiv][NMeA][NMeL][NMeLys(Me)][NMeA][NMeI]A[NMeL]Y(CF3); lactam 4-C) | 320 ± 30 | 
CC[C@H](C)[C@H]1C(=O)N[C@@H](C)C(=O)N(C)[C@@H](CC(C)C)C(=O)N[C@@H](Cc2ccc3ccccc3c2)C(=O)N(C)CCCC[C@H](N(C)C(=O)[C@H](CC(C)C)N(C)C(=O)[C@H](C)N(C)C(=O)[C@H](OC(=O)[C@H](C(C)C)N(C)C)C(C)C)C(=O)N(C)[C@@H](C)C(=O)N1C [10q] (NMe2Val-[dHiv][NMeA][NMeL][NMeLys(Me)][NMeA][NMeI]A[NMeL][2Nal]; lactam 4-C) | 280 ± 30 | 
CC[C@H](C)[C@H]1C(=O)N[C@@H](C)C(=O)N(C)[C@@H](CC(C)C)C(=O)N[C@@H](Cc2ccc(OC)cc2)C(=O)N(C)CCCC[C@H](N(C)C(=O)[C@H](CC(C)C)N(C)C(=O)[C@H](C)N(C)C(=O)[C@H](OC(=O)[C@H](C(C)C)N(C)C)C(C)C)C(=O)N(C)[C@@H](C)C(=O)N1C [2a, [MeAla^3, MeLys(Me)^5, MeAla^6]-CbA] (NMe2Val-[dHiv][NMeA][NMeL][NMeLys(Me)][NMeA][NMeI]A[NMeL]Y(Me); lactam 4-C) |  | times less active than the natural product 1 (ratio of IC50 values to 1): approximately 300 times
CC[C@H](C)[C@@H]1NC(=O)[C@H](C)N(C)C(=O)[C@@H](N(C)C(=O)[C@H](CC(C)C)N(C)C(=O)[C@H](C)N(C)C(=O)[C@H](OC(=O)[C@H](C(C)C)N(C)C)C(C)C)CCCCN(C)C(=O)[C@H](Cc2ccc(OC)cc2)NC(=O)[C@H](CC(C)C)N(C)C(=O)[C@H](C)NC1=O [8e] (NMe2Val-[dHiv][NMeA][NMeL][NMeLys(Me)][NMeA]IA[NMeL]Y(Me); lactam 4-C) |  | fold decrease in cytotoxicity compared with peptide 2a (ratio of IC50 values to 2a): nine-fold or more lower
CC[C@H](C)[C@H]1C(=O)N[C@@H](C)C(=O)N(C)[C@@H](CC(C)C)C(=O)N[C@@H](Cc2ccc(OC)cc2)C(=O)NCCCC[C@@H](N(C)C(=O)[C@H](CC(C)C)N(C)C(=O)[C@H](C)N(C)C(=O)[C@H](OC(=O)[C@H](C(C)C)N(C)C)C(C)C)C(=O)N(C)[C@@H](C)C(=O)N1C [2f] (NMe2Val-[dHiv][NMeA][NMeL][dNMeK][NMeA][NMeI]A[NMeL]Y(Me); lactam 4-C) | > 10000 | 
CC[C@H](C)[C@H]1C(=O)N[C@@H](C)C(=O)N(C)[C@@H](CC(C)C)C(=O)N[C@@H](Cc2ccc(OC)cc2)C(=O)NCCC[C@H](N(C)C(=O)[C@H](CC(C)C)N(C)C(=O)[C@H](C)N(C)C(=O)[C@H](OC(=O)[C@H](C(C)C)N(C)C)C(C)C)C(=O)N(C)[C@@H](C)C(=O)N1C [2g] (NMe2Val-[dHiv][NMeA][NMeL][NMeOrn][NMeA][NMeI]A[NMeL]Y(Me); lactam 4-C) | > 10000 | 
CC[C@H](C)[C@H]1C(=O)N[C@@H](C)C(=O)N(C)[C@@H](CC(C)C)C(=O)N[C@@H](Cc2ccc(-c3ccccc3)cc2)C(=O)N(C)[C@H](C)C(=O)O[C@H](C)[C@H](N(C)C(=O)[C@H](CC(C)C)N(C)C(=O)[C@H](C)N(C)C(=O)[C@H](OC(=O)[C@H](C(C)C)N(C)C)C(C)C)C(=O)N(C)[C@@H](C)C(=O)N1C [compound 12, [MeAla^3, MeAla^6, Bph^10]-CbA] (NMe2Val-[dHiv][NMeA][NMeL][NMeT][NMeA][NMeI]A[NMeL][Bip][dNMeA]; ester 4-C) |  | fold more potent cytotoxicity than 1 (coibamide A) (ratio of IC50 values to 1): 5.6 fold; IC50 (read-out: IC50 (concentration for 50% growth inhibition of A549 cells), MTS assay, 72 h treatment, n = 3): 0.25 nM
CC[C@H](C)[C@H]1C(=O)N[C@@H](C)C(=O)N(C)[C@@H](CC(C)C)C(=O)N[C@@H](Cc2ccc(N=[N+]=[N-])cc2)C(=O)N(C)CCCC[C@H](N(C)C(=O)[C@H](CC(C)C)N(C)C(=O)[C@H](C)N(C)C(=O)[C@H](OC(=O)[C@H](C(C)C)N(C)C)C(C)C)C(=O)N(C)[C@@H](C)C(=O)N1C [10e] (NMe2Val-[dHiv][NMeA][NMeL][NMeLys(Me)][NMeA][NMeI]A[NMeL][Phe(4-N3)]; lactam 4-C) | 380 ± 50 | 
CC[C@H](C)[C@H]1C(=O)N[C@@H](C)C(=O)N(C)[C@@H](CC(C)C)C(=O)N[C@@H](Cc2ccc(OC)cc2)C(=O)NCCC[C@@H](N(C)C(=O)[C@H](CC(C)C)N(C)C(=O)[C@H](C)N(C)C(=O)[C@H](OC(=O)[C@H](C(C)C)N(C)C)C(C)C)C(=O)N(C)[C@@H](C)C(=O)N1C [2h] (NMe2Val-[dHiv][NMeA][NMeL][dNMeOrn][NMeA][NMeI]A[NMeL]Y(Me); lactam 4-C) | > 10000 | 
CC[C@H](C)[C@H]1C(=O)N[C@@H](C)C(=O)N(C)[C@@H](CC(C)C)C(=O)N2Cc3ccccc3C[C@H]2C(=O)N(C)CCCC[C@H](N(C)C(=O)[C@H](CC(C)C)N(C)C(=O)[C@H](C)N(C)C(=O)[C@H](OC(=O)[C@H](C(C)C)N(C)C)C(C)C)C(=O)N(C)[C@@H](C)C(=O)N1C [10o] (NMe2Val-[dHiv][NMeA][NMeL][NMeLys(Me)][NMeA][NMeI]A[NMeL][Tic]; lactam 4-C) | > 10000 | cytotoxicity / bioactivity in words (MTS assay): loss of bioactivity
CC[C@H](C)[C@H]1C(=O)N[C@@H](C)C(=O)N(C)[C@@H](CC(C)C)C(=O)N[C@@H](Cc2ccc(C#N)cc2)C(=O)N(C)CCCC[C@H](N(C)C(=O)[C@H](CC(C)C)N(C)C(=O)[C@H](C)N(C)C(=O)[C@H](OC(=O)[C@H](C(C)C)N(C)C)C(C)C)C(=O)N(C)[C@@H](C)C(=O)N1C [10d] (NMe2Val-[dHiv][NMeA][NMeL][NMeLys(Me)][NMeA][NMeI]A[NMeL][Phe(4-CN)]; lactam 4-C) | 1500 ± 500 | 
CC[C@H](C)[C@H]1C(=O)N[C@@H](C)C(=O)N(C)[C@@H](CC(C)C)C(=O)N[C@H](Cc2ccc(OC)cc2)C(=O)N(C)CCCC[C@H](N(C)C(=O)[C@H](CC(C)C)N(C)C(=O)[C@H](C)N(C)C(=O)[C@H](OC(=O)[C@H](C(C)C)N(C)C)C(C)C)C(=O)N(C)[C@@H](C)C(=O)N1C [9e] (NMe2Val-[dHiv][NMeA][NMeL][NMeLys(Me)][NMeA][NMeI]A[NMeL][dY](Me); lactam 4-C) | > 10000 | 
CC[C@H](C)[C@H]1C(=O)N[C@@H](C)C(=O)N(C)[C@@H](CC(C)C)C(=O)N[C@@H](Cc2ccc(C(C)(C)C)cc2)C(=O)N(C)CCCC[C@H](N(C)C(=O)[C@H](CC(C)C)N(C)C(=O)[C@H](C)N(C)C(=O)[C@H](OC(=O)[C@H](C(C)C)N(C)C)C(C)C)C(=O)N(C)[C@@H](C)C(=O)N1C [10g] (NMe2Val-[dHiv][NMeA][NMeL][NMeLys(Me)][NMeA][NMeI]A[NMeL][Phe(4-tBu)]; lactam 4-C) | 610 ± 210 | 
CC[C@H](C)[C@H]1C(=O)N[C@H](C)C(=O)N(C)[C@@H](CC(C)C)C(=O)N[C@@H](Cc2ccc(OC)cc2)C(=O)N(C)CCCC[C@H](N(C)C(=O)[C@H](CC(C)C)N(C)C(=O)[C@H](C)N(C)C(=O)[C@H](OC(=O)[C@H](C(C)C)N(C)C)C(C)C)C(=O)N(C)[C@@H](C)C(=O)N1C [9c] (NMe2Val-[dHiv][NMeA][NMeL][NMeLys(Me)][NMeA][NMeI][dA][NMeL]Y(Me); lactam 4-C) | > 10000 | 
